Experiment: xn = mol fraction of the nth substance listed

CCCC[n+]1ccn(C)c1.[Cl-] + O
Conditions | electrical conductivity [S/m] | viscosity [mPa·s]
278.15 K, 100 kPa, x1 = 9.568e-05 | – | 1.532
278.15 K, 100 kPa, x1 = 0.000202 | – | 1.539
278.15 K, 100 kPa, x1 = 0.0003808 | – | 1.545
278.15 K, 100 kPa, x1 = 0.0005628 | – | 1.555
278.15 K, 100 kPa, x1 = 0.0007322 | – | 1.561
278.15 K, 100 kPa, x1 = 0.0009239 | – | 1.57
278.15 K, 100 kPa, x1 = 0.001099 | – | 1.576
278.15 K, 100 kPa, x1 = 0.001363 | – | 1.587
278.15 K, 100 kPa, x1 = 0.001909 | – | 1.608
283.15 K, 100 kPa, x1 = 9.568e-05 | – | 1.314
283.15 K, 100 kPa, x1 = 0.000202 | – | 1.318
283.15 K, 100 kPa, x1 = 0.0003808 | – | 1.325
283.15 K, 100 kPa, x1 = 0.0005628 | – | 1.332
283.15 K, 100 kPa, x1 = 0.0007322 | – | 1.339
283.15 K, 100 kPa, x1 = 0.0009239 | – | 1.348
283.15 K, 100 kPa, x1 = 0.001099 | – | 1.355
283.15 K, 100 kPa, x1 = 0.001363 | – | 1.365
283.15 K, 100 kPa, x1 = 0.001909 | – | 1.377
288.15 K, 100 kPa, x1 = 9.568e-05 | – | 1.146
288.15 K, 100 kPa, x1 = 0.000202 | – | 1.149
288.15 K, 100 kPa, x1 = 0.0003808 | – | 1.155
288.15 K, 100 kPa, x1 = 0.0005628 | – | 1.161
288.15 K, 100 kPa, x1 = 0.0007322 | – | 1.168
288.15 K, 100 kPa, x1 = 0.0009239 | – | 1.178
288.15 K, 100 kPa, x1 = 0.001099 | – | 1.18
288.15 K, 100 kPa, x1 = 0.001363 | – | 1.189
288.15 K, 100 kPa, x1 = 0.001909 | – | 1.198
293.15 K, 100 kPa, x1 = 0.0003808 | – | 1.017
293.15 K, 100 kPa, x1 = 0.0005628 | – | 1.021
293.15 K, 100 kPa, x1 = 0.0007322 | – | 1.027
293.15 K, 100 kPa, x1 = 0.0009239 | – | 1.033
293.15 K, 100 kPa, x1 = 0.001099 | – | 1.036
293.15 K, 100 kPa, x1 = 0.001363 | – | 1.044
293.15 K, 100 kPa, x1 = 0.001909 | – | 1.053
293.15 K, 101 kPa, x2 = 0.4982 | – | 240
293.15 K, 101 kPa, x2 = 0.9502 | – | 2.57
298.15 K, 100 kPa, x1 = 0.000202 | – | 0.9
298.15 K, 100 kPa, x1 = 0.0003808 | – | 0.904
298.15 K, 100 kPa, x1 = 0.0005628 | – | 0.908
298.15 K, 100 kPa, x1 = 0.0007322 | – | 0.913
298.15 K, 100 kPa, x1 = 0.0009239 | – | 0.918
298.15 K, 100 kPa, x1 = 0.001099 | – | 0.922
298.15 K, 100 kPa, x1 = 0.001363 | – | 0.928
298.15 K, 100 kPa, x1 = 0.001909 | – | 0.936
298.15 K, 101 kPa, x1 = 0.009814 | 3.03 | –
298.15 K, 101 kPa, x2 = 0.8034 | 3.08 | 12.6
298.15 K, 101 kPa, x2 = 0.9259 | 6.29 | –
298.15 K, 101 kPa, x2 = 0.9476 | 6.24 | –
298.15 K, 101 kPa, x2 = 0.9647 | 5.76 | –
298.15 K, 101 kPa, x2 = 0.9787 | 4.73 | –
298.15 K, 101.3 kPa, x1 = 8.71e-06 | 0.00583 | –
298.15 K, 101.3 kPa, x1 = 1.208e-05 | 0.00794 | –
298.15 K, 101.3 kPa, x1 = 1.485e-05 | 0.00965 | –
298.15 K, 101.3 kPa, x1 = 1.707e-05 | 0.01101 | –
298.15 K, 101.3 kPa, x1 = 1.937e-05 | 0.01241 | –
298.15 K, 101.3 kPa, x1 = 2.164e-05 | 0.0138 | –
298.15 K, 101.3 kPa, x1 = 2.397e-05 | 0.0152 | –
298.15 K, 101.3 kPa, x1 = 2.6e-05 | 0.0164 | –
298.15 K, 101.3 kPa, x1 = 2.824e-05 | 0.0177 | –
298.15 K, 101.3 kPa, x1 = 3.029e-05 | 0.019 | –
298.15 K, 101.3 kPa, x1 = 0.0009038 | – | 0.911
298.15 K, 101.3 kPa, x1 = 0.000929 | – | 0.908
298.15 K, 101.3 kPa, x1 = 0.001008 | – | 0.919
298.15 K, 101.3 kPa, x1 = 0.001815 | – | 0.928
298.15 K, 101.3 kPa, x1 = 0.00182 | – | 0.935
298.15 K, 101.3 kPa, x1 = 0.001824 | – | 0.928
298.15 K, 101.3 kPa, x1 = 0.003602 | – | 0.971
303.15 K, 100 kPa, x1 = 9.568e-05 | – | 0.803
303.15 K, 100 kPa, x1 = 0.000202 | – | 0.806
303.15 K, 100 kPa, x1 = 0.0003808 | – | 0.81
303.15 K, 100 kPa, x1 = 0.0005628 | – | 0.813
303.15 K, 100 kPa, x1 = 0.0007322 | – | 0.817
303.15 K, 100 kPa, x1 = 0.0009239 | – | 0.82
303.15 K, 100 kPa, x1 = 0.001099 | – | 0.823
303.15 K, 100 kPa, x1 = 0.001363 | – | 0.828
303.15 K, 100 kPa, x1 = 0.001909 | – | 0.837
303.15 K, 101 kPa, x2 = 0.8999 | – | 3.82
308.15 K, 100 kPa, x1 = 9.568e-05 | – | 0.725
308.15 K, 100 kPa, x1 = 0.000202 | – | 0.727
308.15 K, 100 kPa, x1 = 0.0003808 | – | 0.73
308.15 K, 100 kPa, x1 = 0.0005628 | – | 0.733
308.15 K, 100 kPa, x1 = 0.0007322 | – | 0.737
308.15 K, 100 kPa, x1 = 0.0009239 | – | 0.74
308.15 K, 100 kPa, x1 = 0.001099 | – | 0.742
308.15 K, 100 kPa, x1 = 0.001363 | – | 0.746
308.15 K, 100 kPa, x1 = 0.001909 | – | 0.754
308.15 K, 101 kPa, x2 = 0.4982 | – | 92
308.15 K, 101.3 kPa, x1 = 0.0009038 | – | 0.737
308.15 K, 101.3 kPa, x1 = 0.00092 | – | 0.733
308.15 K, 101.3 kPa, x1 = 0.000929 | – | 0.733
308.15 K, 101.3 kPa, x1 = 0.001008 | – | 0.74
308.15 K, 101.3 kPa, x1 = 0.001815 | – | 0.748
308.15 K, 101.3 kPa, x1 = 0.00182 | – | 0.754
308.15 K, 101.3 kPa, x1 = 0.001822 | – | 0.751
308.15 K, 101.3 kPa, x1 = 0.001824 | – | 0.747
310.15 K, 101.3 kPa, x1 = 0.0009038 | – | 0.71
310.15 K, 101.3 kPa, x1 = 0.00092 | – | 0.705
310.15 K, 101.3 kPa, x1 = 0.000929 | – | 0.704
310.15 K, 101.3 kPa, x1 = 0.001008 | – | 0.712
310.15 K, 101.3 kPa, x1 = 0.001815 | – | 0.722
310.15 K, 101.3 kPa, x1 = 0.00182 | – | 0.728
310.15 K, 101.3 kPa, x1 = 0.001822 | – | 0.722
310.15 K, 101.3 kPa, x1 = 0.001824 | – | 0.717
313.15 K, 100 kPa, x1 = 9.568e-05 | – | 0.658
313.15 K, 100 kPa, x1 = 0.000202 | – | 0.66
313.15 K, 100 kPa, x1 = 0.0003808 | – | 0.663
313.15 K, 100 kPa, x1 = 0.0005628 | – | 0.665
313.15 K, 100 kPa, x1 = 0.0007322 | – | 0.668
313.15 K, 100 kPa, x1 = 0.0009239 | – | 0.671
313.15 K, 100 kPa, x1 = 0.001099 | – | 0.673
313.15 K, 100 kPa, x1 = 0.001363 | – | 0.677
313.15 K, 100 kPa, x1 = 0.001909 | – | 0.686
318.15 K, 101.3 kPa, x1 = 0.0009038 | – | 0.613
318.15 K, 101.3 kPa, x1 = 0.00092 | – | 0.608
318.15 K, 101.3 kPa, x1 = 0.000929 | – | 0.607
318.15 K, 101.3 kPa, x1 = 0.001008 | – | 0.615
318.15 K, 101.3 kPa, x1 = 0.001815 | – | 0.624
318.15 K, 101.3 kPa, x1 = 0.00182 | – | 0.625
318.15 K, 101.3 kPa, x1 = 0.001822 | – | 0.623
318.15 K, 101.3 kPa, x1 = 0.001824 | – | 0.618

CCOS(=O)(=O)[O-].CC[N+]1(C)CCOCC1 + O
101 kPa
Conditions | viscosity [mPa·s]
313.15 K, x2 = 0.193 | 750
333.15 K, x2 = 0.3681 | 81
333.15 K, x2 = 0.7786 | 6.7
343.15 K, x2 = 0.6835 | 9.5

COC[n+]1ccn(C)c1.O=S(=O)([N-]S(=O)(=O)C(F)(F)F)C(F)(F)F + O
Conditions | viscosity [mPa·s]
283 K, 101 kPa, x1 = 0.8283 | 80.4

From the CheMixHub ionic liquid set
